Results on three compounds are retold here after patent US20100305658A1 (priority 2004, published 2010).

The test system of assay [1] is GABAA receptors. The experiment in a line: Extracellular recording of spontaneous spindle waves in LGN slice with GABAA receptors blocked. The following applies: 20 μM in bath; ferret LGN slice; n=5 slices. It is filed as cell-based. On the procedure: For the preparation of slices, 3-4 month old male or female ferrets (muftela putoriouf furo; Marshall Farms; North Rose, New York) were deeply anesthetized with sodium pentobarbital (30-40 mg/kg) and killed by decapitation. The forebrain was rapidly removed, and the hemispheres were separated with a midline incision. Four hundred micron thick slices were cut using a vibratome (Ted Pella, Inc.) in the sagittal plane. During preparation of slices, the tissue was placed in a solution (5° C.) in which NaCl was replaced with sucrose while maintaining an osmolarity of 307 mOsm to increase tissue viability. […]
Intracellular recording electrodes were formed on a Sutter Instruments P-2000 laser micropipette puller from medium-walled glass (WPI, 1B100F). […] The data was analyzed using Chart (eDaq) on a Pentium style computer and figures were drawn using Core1DRAW (Corel).
To test the functional effects of HFS-mediated glutamate release, simultaneous intracellular and extracellular recordings were made in the ferret lateral geniculate nucleus (LGN) in vitro slice preparation, which generates spontaneous spindle waves (FIG. 14; n=21). Spindle activity was recorded from a population of neurons (extracellular electrode), and the electrophysiological activity associated with the spindle activity was recorded from single neurons within that population. […]

In assay [2] the test system is striatal dopamine efflux (dopamine oxidation current). The experiment in a line: STN stimulation-evoked striatal dopamine efflux, constant potential amperometry, effects of selective reuptake inhibitors. It is filed as in vivo, rat. The following applies: post-drug, 20 mg/kg systemic injection, STN stimulation 15 pulses, 50 Hz, 300 μA.
In assay [3] the test system is glutamate release in ferret thalamic slices (A1 lamina of the LGN). The experiment in a line: HFS-induced glutamate release in thalamic slices measured with a glutamate sensor. It is filed as cell-based.

For picrotoxin, the “effect on spontaneous spindle waves” value in assay [1] is listed as “transformed into events that resemble absence-seizure-like activity”.

Turning to `CN1Cc2c(N)cccc2C(c2ccccc2)C1` (stereo not shown) [nomifensine], the “recovery of dopamine efflux to prestimulation baseline levels (total duration)” value in assay [2] came out at 2035 ± 132 ms. Besides, in assay [2] (anaesthetized rat striatum), the “STN electrical stimulation-evoked dopamine oxidation current (amplitude)” value is recorded as 765±38 pA.

As for `NC1=N[C@H](O)[C@H]2[C@H]3O[C@]4(O)O[C@@H]([C@@H](O)[C@@]2(N1)[C@@H]4O)[C@]3(O)CO` [tetrodotoxin], the “block of glutamate release induced by HFS” value in assay [3] is “failed to block”.
